In ChEMBL document CHEMBL1201862, “PubChem BioAssay data set” (2004):
Where “and” joins values, the source holds several entries; their conditions need not be identical. Equal entries are not always repeated.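 Where inhibition never reached the appropriate level, the endpoint shown equals the highest concentration tested. Otherwise, values were interpolated linearly from a five-concentration, 48-hour dose response in 96-well plates. GI50 marks 50% less growth.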 Calls of active or inactive are those of the source. Rule as the data show it: active = GI50 up to about 1.1 µM and inactive = higher.

Legend:
Assay in all cases: NCI anticancer screen, dose series, 48 h
[1] = tested on: SW-620
[2] = tested on: UACC-62
[3] = tested on: T47D
[4] = tested on: SK-MEL-2
[5] = tested on: SNB-19
[6] = tested on: SK-MEL-28
[7] = tested on: K562
[8] = tested on: OVCAR-8
[9] = tested on: HCT-116
[10] = tested on: SK-MEL-5
[11] = tested on: NCI-H226
[12] = tested on: HL-60
[13] = tested on: Malme-3M
[14] = tested on: NCI/ADR-RES
[15] = tested on: TK-10
[16] = tested on: MDA-MB-231
[17] = tested on: HCC 2998
[18] = tested on: NCI-H460
[19] = tested on: SR

SMILES	GI50 [1]	GI50 [2]	GI50 [3]	GI50 [4]	GI50 [5]	GI50 [6]	GI50 [7]	GI50 [8]	GI50 [9]	GI50 [10]	GI50 [11]	GI50 [12]	GI50 [13]	GI50 [14]	GI50 [15]	GI50 [16]	GI50 [17]	GI50 [18]	GI50 [19]
O=C1CC(c2ccc(O)cc2)C2(O1)C(=O)OC(C(O)CO)C2O (stereo unspecified)	> 100 µM (inactive)	> 100 µM (inactive)	> 100 µM (inactive)	> 100 µM (inactive)	> 100 µM (inactive)	> 100 µM (inactive)	> 100 µM (inactive)	> 100 µM (inactive)	> 100 µM (inactive)	> 100 µM (inactive)	> 100 µM (inactive)	> 100 µM (inactive)	96.2 µM (inactive)	> 100 µM (inactive)	> 100 µM (inactive)	> 100 µM (inactive)			
CCc1cn(C2CC(CO)C(CO)S2)c(=O)[nH]c1=O (stereo unspecified)	> 100 µM (inactive)	> 100 µM (inactive)	> 100 µM (inactive)	> 100 µM (inactive)	> 100 µM (inactive)	> 100 µM (inactive)	> 100 µM (inactive)	> 100 µM (inactive)	> 100 µM (inactive)	> 100 µM (inactive)	> 100 µM (inactive)	> 100 µM (inactive)	> 100 µM (inactive)	> 100 µM (inactive)	> 100 µM (inactive)	> 100 µM (inactive)	> 100 µM (inactive)		
CCSCCCSCCSCC	> 100 µM (inactive)	> 100 µM (inactive)	> 100 µM (inactive)		> 100 µM (inactive)	> 100 µM (inactive)	> 100 µM (inactive)	> 100 µM (inactive)	> 100 µM (inactive)	> 100 µM (inactive)		26.4 µM (inactive)			> 100 µM (inactive)	> 100 µM (inactive)	> 100 µM (inactive)	> 100 µM (inactive)	
CC(C)(C)N1CSC(=S)N(Cc2ccco2)C1	1.21 µM (inactive)	7.05 µM (inactive)	5.64 µM (inactive)	3.55 µM (inactive)	3.91 µM (inactive)	2.4 µM (inactive)	1.85 µM (inactive)	2.12 µM (inactive)	3.81 µM (inactive)	3.61 µM (inactive)	20.3 µM (inactive)	1.53 µM (inactive)	4.16 µM (inactive)	4.11 µM (inactive)	3.04 µM (inactive)		4.02 µM (inactive)	5.89 µM (inactive)	0.555 µM (active)
CCOC(=O)/C(C(=O)Nc1ccc(F)cc1)=C(/N)N1CCOCC1	> 100 µM (inactive)	> 100 µM (inactive)	> 100 µM (inactive)	> 100 µM (inactive)	> 100 µM (inactive)	> 100 µM (inactive)	> 100 µM (inactive)	> 100 µM (inactive)	> 100 µM (inactive)		> 100 µM (inactive)	> 100 µM (inactive)	> 100 µM (inactive)	> 100 µM (inactive)	> 100 µM (inactive)	> 100 µM (inactive)	> 100 µM (inactive)	> 100 µM (inactive)	
Nc1nc2c(c(=O)[nH]1)NC(CO)CN2 (stereo unspecified)	37.9 µM (inactive)	84.7 µM (inactive)			> 100 µM (inactive)	> 100 µM (inactive)	51.3 µM (inactive)	71 µM (inactive)	32.7 µM (inactive)		> 100 µM (inactive)	> 100 µM (inactive)	> 100 µM (inactive)		> 100 µM (inactive)			> 100 µM (inactive)	
COc1ccc(/C=C2/N/C(=N\N=C/C(O)C(O)C(O)CO)NC2=O)cc1 (stereo unspecified)	> 100 µM (inactive) and 77.8 µM (inactive)			> 100 µM (inactive)				> 100 µM (inactive)	> 100 µM (inactive)		87.7 µM (inactive)	> 100 µM (inactive)	> 100 µM (inactive)	> 100 µM (inactive)	> 100 µM (inactive)	91 µM (inactive)	58.5 µM (inactive)	> 100 µM (inactive)	> 100 µM (inactive)
O=C1/C(=C/c2cccc3ccccc23)Cc2ccccc21	31.6 µM (inactive)	22.4 µM (inactive)			17.9 µM (inactive)	32.8 µM (inactive)	62.4 µM (inactive)	53.8 µM (inactive)		29.9 µM (inactive)	10.5 µM (inactive)	28.4 µM (inactive)		52.2 µM (inactive)	49.2 µM (inactive)		15.5 µM (inactive)	36.6 µM (inactive)	57.3 µM (inactive)
COc1cc(C2SCC(=O)N2NC(=O)c2ccc(NC(C)=O)cc2)cc(OC)c1OC (stereo unspecified)	> 100 µM (inactive)	> 100 µM (inactive)	> 100 µM (inactive)	> 100 µM (inactive)	> 100 µM (inactive)	> 100 µM (inactive)	35.8 µM (inactive)	> 100 µM (inactive)	> 100 µM (inactive)	> 100 µM (inactive)	> 100 µM (inactive)	> 100 µM (inactive)		> 100 µM (inactive)	> 100 µM (inactive)	> 100 µM (inactive)	> 100 µM (inactive)	> 100 µM (inactive)	
C[C@@H](CC(=O)O)OC1OC(COC(=O)C(C)(C)C)C(OC(=O)C(C)(C)C)C(OC(=O)C(C)(C)C)C1OC(=O)C(C)(C)C (stereo partly specified)	45.4 µM (inactive)	71.9 µM (inactive)	45.9 µM (inactive)	49 µM (inactive)	28.2 µM (inactive)	89.7 µM (inactive)	34.4 µM (inactive)	81.7 µM (inactive)	47.5 µM (inactive)	29.6 µM (inactive)	> 100 µM (inactive)	21.9 µM (inactive)		> 100 µM (inactive)	99.3 µM (inactive)	> 100 µM (inactive)	35 µM (inactive)	29 µM (inactive)	
CCOC(=O)c1sc2nc(SC)nc3c2c1NCN3c1ccccc1Cl	80.2 µM (inactive)	37.4 µM (inactive)	23.7 µM (inactive)	97.3 µM (inactive)	48.3 µM (inactive)	55.2 µM (inactive)	> 100 µM (inactive)	31.7 µM (inactive)	31.8 µM (inactive)	31.5 µM (inactive)	> 100 µM (inactive)		31.8 µM (inactive)	40.2 µM (inactive)	37.8 µM (inactive)	76.4 µM (inactive)	56.5 µM (inactive)	30.7 µM (inactive)	
O=[N+]([O-])c1ccc(/C=N/n2c(CO)nc3ccccc32)o1	5.71 µM (inactive)	7.52 µM (inactive)	20.5 µM (inactive)	4.67 µM (inactive)	15.8 µM (inactive)	3.52 µM (inactive)	4.67 µM (inactive)	10.3 µM (inactive)	1.71 µM (inactive)	2.14 µM (inactive)	15.1 µM (inactive)	2.3 µM (inactive)	2.16 µM (inactive)	15.7 µM (inactive)	6.55 µM (inactive)	5.36 µM (inactive)		3.29 µM (inactive)	
COC(=O)C1(C(=O)OC)CC2=C(S(=O)(=O)c3ccccc3)C[C@@H](C#N)[C@H]2C1	> 100 µM (inactive)			> 100 µM (inactive)	> 100 µM (inactive)	> 100 µM (inactive)	> 100 µM (inactive)	> 100 µM (inactive)	> 100 µM (inactive)	> 100 µM (inactive)	> 100 µM (inactive)	> 100 µM (inactive)	> 100 µM (inactive)	> 100 µM (inactive)	> 100 µM (inactive)	> 100 µM (inactive)	16 µM (inactive)	91.4 µM (inactive)	
CC(C)(C)OC(=O)NC(Cc1ccc(O)cn1)C(=O)O (stereo unspecified)	> 100 µM (inactive)				> 100 µM (inactive)	> 100 µM (inactive)	> 100 µM (inactive)	> 100 µM (inactive)	> 100 µM (inactive)	> 100 µM (inactive)	> 100 µM (inactive)	> 100 µM (inactive)	> 100 µM (inactive)	> 100 µM (inactive)	> 100 µM (inactive)	> 100 µM (inactive)	> 100 µM (inactive)	> 100 µM (inactive)	> 100 µM (inactive)
O=C1/C(=C/c2cccc([N+](=O)[O-])c2)Cc2ccccc21	94.8 µM (inactive)	> 100 µM (inactive)		> 100 µM (inactive)	> 100 µM (inactive)	> 100 µM (inactive)	> 100 µM (inactive)	> 100 µM (inactive)	39.7 µM (inactive)		> 100 µM (inactive)	> 100 µM (inactive)	> 100 µM (inactive)	> 100 µM (inactive)	> 100 µM (inactive)	> 100 µM (inactive)		> 100 µM (inactive)	36.8 µM (inactive)
c1ccc2c(-c3csc(-c4c[nH]c5ccccc45)n3)c[nH]c2c1	> 100 µM (inactive)	> 100 µM (inactive)		> 100 µM (inactive)	> 89.7 µM (inactive)	> 100 µM (inactive)	3.37 µM (inactive)	> 100 µM (inactive)	> 48.8 µM (inactive)		> 100 µM (inactive)	14.4 µM (inactive)	> 100 µM (inactive)	> 100 µM (inactive)	63.8 µM (inactive)	> 67.8 µM (inactive)	> 100 µM (inactive)	> 53.7 µM (inactive)	2.93 µM (inactive)
Nc1nc(N)c2nc(CNc3ccc(C(=O)NC(CCCCNC(=O)c4ccccc4C(=O)O)C(=O)O)cc3)cnc2n1 (stereo unspecified)	0.01 µM (active)	0.01 µM (active)	0.01 µM (active)	68.4 µM (inactive)	< 0.0158 µM (active)	< 0.0275 µM (active)	0.01 µM (active)	0.01 µM (active)	0.01 µM (active)	< 0.0119 µM (active)	> 100 µM (inactive)		3.61 µM (inactive)	0.01 µM (active)	0.173 µM (active)		0.01 µM (active)	0.01 µM (active)	0.01 µM (active)
